Key:
Type in all cases: in vivo
[1] = tested on: barnyardgrass (Echinochloa crus-galli); test: Test A pre/postemergence
Summary of the method: (§1)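 Soil: loam blended with sand. Formulation: non-phytotoxic solvent mixture with surfactant. Timing: preemergence soil spray plus concurrent postemergence spray (plants 2–10 cm, 1–2 leaves). Readout: visual injury versus untreated controls at ~10 days, 0–100.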

[2] = tested on: crabgrass (Digitaria sanguinalis); test: Test A pre/postemergence
Summary of the method: as §1

[3] = tested on: bermudagrass (Cynodon dactylon); test: Test C pre/postemergence; details: Postemergence; for Bermudagrass plant response rating: scale 0 to 100 (0 no effect, 100 complete control)
Summary of the method: (§2)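 Greenhouse herbicide screen, visual readout. Compound in solvent/surfactant applied preemergence at planting or postemergence to 1- to 4-leaf plants; assessed at 12–14 days on a 0–100 control scale.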

[4] = tested on: common ragweed (Ambrosia elatior); test: Test C pre/postemergence; details: Postemergence
Summary of the method: as §2

[5] = tested on: goosegrass (Eleusine indica); test: Test C pre/postemergence; details: Postemergence
Summary of the method: as §2

[6] = tested on: pigweed (Amaranthus retroflexus); test: Test C pre/postemergence; details: Postemergence
Summary of the method: as §2

[7] = tested on: velvetleaf (Abutilon theophrasti); test: Test C pre/postemergence; details: Postemergence
Summary of the method: as §2

[8] = tested on: woolly cupgrass (Eriochloa villosa); test: Test C pre/postemergence; details: Postemergence
Summary of the method: as §2

[9] = tested on: yellow nutsedge (Cyperus esculentus); test: Test C pre/postemergence; details: Postemergence
Summary of the method: as §2

[10] = tested on: chickweed (Stellaria media); test: Test C postemergence
Summary of the method: as §2

[11] = Postemergence, 125 g ai/ha, 0 to 100 scale (0 no effect, 100 complete control)
[12] = Postemergence, 500 g ai/ha, 0 to 100 scale (0 no effect, 100 complete control)
[13] = Preemergence, 125 g ai/ha, 0 to 100 scale where 0 is no effect and 100 is complete control, approximately ten days
[14] = Preemergence, 500 g ai/ha, 0 to 100 scale where 0 is no effect and 100 is complete control, approximately ten days
[15] = 125 g ai/ha, scale 0 to 100 (0 no effect, 100 complete control)

Nc1nc(-c2ccc(Cl)cc2)nc(C(=O)O)c1Br [Compound 88]
Plant response rating, Barnyardgrass [1, 11]: 50 | Plant response rating, Barnyardgrass [1, 12]: 85 | Plant response rating, Barnyardgrass [1, 13]: 10 | Plant response rating, Barnyardgrass [1, 14]: 55 | Plant response rating, Crabgrass [2, 11]: 60 | Plant response rating, Crabgrass [2, 12]: 85 | Plant response rating, Crabgrass [2, 13]: 35 | Plant response rating, Crabgrass [2, 14]: 85 | Plant response rating (scale of 0 to 100), Bermudagrass ([3]; 31 g ai/ha): 50 | Bermudagrass plant response rating ([3]; 62 g ai/ha): 70 | Bermudagrass plant response rating ([3]; 125 g ai/ha): 70 | Plant response rating, Bermudagrass ([3]; 250 g ai/ha, scale 0 to 100): 80 | Plant response rating (scale of 0 to 100), Ragweed ([4]; 31 g ai/ha): 90 | Plant response rating (scale of 0 to 100), Ragweed ([4]; 62 g ai/ha): 100 | Ragweed plant response rating [4, 15]: 100 | Plant response rating, Ragweed ([4]; 250 g ai/ha, scale 0 to 100): 100 | Plant response rating (scale of 0 to 100), Goosegrass ([5]; 31 g ai/ha): 50 | Plant response rating (scale of 0 to 100), Goosegrass ([5]; 62 g ai/ha): 75 | Goosegrass plant response rating [5, 15]: 75 | Plant response rating, Goosegrass ([5]; 250 g ai/ha, scale 0 to 100): 80 | Plant response rating (scale of 0 to 100), Pigweed ([6]; 31 g ai/ha): 95 | Plant response rating (scale of 0 to 100), Pigweed ([6]; 62 g ai/ha): 100 | Pigweed plant response rating [6, 15]: 100 | Plant response rating, Pigweed ([6]; 250 g ai/ha, scale 0 to 100): 100 | Plant response rating (scale of 0 to 100), Velvetleaf ([7]; 31 g ai/ha): 85 | Plant response rating (scale of 0 to 100), Velvetleaf ([7]; 62 g ai/ha): 90 | Velvetleaf plant response rating [7, 15]: 95 | Plant response rating, Velvetleaf ([7]; 250 g ai/ha, scale 0 to 100): 95 | Plant response rating (scale of 0 to 100), Cupgrass, Woolly ([8]; 31 g ai/ha): 70 | Plant response rating (scale of 0 to 100), Cupgrass, Woolly ([8]; 62 g ai/ha): 75 | Cupgrass, Woolly plant response rating [8, 15]: 85 | Plant response rating, Cupgrass, Woolly ([8]; 250 g ai/ha, scale 0 to 100): 85 | Plant response rating (scale of 0 to 100), Nutsedge, Yellow ([9]; 31 g ai/ha): 40 | Plant response rating (scale of 0 to 100), Nutsedge, Yellow ([9]; 62 g ai/ha): 45 | Nutsedge, Yellow plant response rating [9, 15]: 55 | Plant response rating, Nutsedge, Yellow ([9]; 250 g ai/ha, scale 0 to 100): 75 | Plant response rating (scale of 0 to 100), Chickweed ([10]; 31 g ai/ha): 80 | Plant response rating (scale of 0 to 100), Chickweed ([10]; 62 g ai/ha): 100 | Chickweed plant response rating [10, 15]: 100 | Plant response rating, Chickweed ([10]; 250 g ai/ha, scale 0 to 100): 100
